Test results reported in patent publication US4863951A, “Pharmacologically active amino-5,6,7,8-tetrahydronaphtho [2,3-B] furan compounds” (ADIR Et Cie, priority 1987, dated 1989).
Where a name gives a salt, the structure may show the parent alone. Read-outs that look alike come from different tables or passages of the source.

How the values were obtained:
[1] = tested on: ponto-geniculo-occipital (P.G.O.) waves induced by Ro4-1284; assay: Antagonism of the ponto-geniculo-occipital (P.G.O.) waves induced by Ro4-1284; assay type: in vivo; settings: Felis catus, iv, cats, i.v., read-out: ED50 (effective dose inhibiting by 50% the number of P.G.O. waves)
Protocol: The antidepressant effects of the compounds of the invention were investigated by assessing the antagonism of reserpine-induced hypothermia and the antagonism of the ponto-geniculo-occipital waves induced by the compound Ro4-1284 in cats.
This study was performed according to the method of Ruch-Monachon M. A., Jalfre M. and Haefely W. described in Arch. Int. Pharm. Therap., (1976), 219, No. 2, p. 251-346, and it enabled the effective dose (i.v) inhibiting by 50% (ED50) the number of P.G.O waves to be assessed.

[2] = tested on: amphetamine-induced stereotypy; assay: Antagonism of amphetamine-induced stereotypy in rats; assay type: in vivo; settings: 3 hours
Protocol: The inhibitory activity of the compounds of the invention with respect to apomorphine- or amphetamine-induced stereotypy in rats was assessed using the scale of scoring of stereotyped movements described by Quinton R. M. and Halliwell G. in Nature (1963), 200, p. 178-179.
Apomorphine or amphetamine was administered to the animals intraperitoneally at a dose of 1.5 mg.kg^-1. The percentage inhibition (-) or potentiation (+) of the stereotypy score (% ISS) shown in Tables IV and V for apomorphine corresponds to a measurement time of 30 minutes. In contrast, the percentage inhibition of the stereotypy score shown in Table VI for amphetamine corresponds to a measurement time of 3 hours.
(s=significant difference, p<0.05).

[3] = tested on: aggression of isolated, bulbectomized rats; assay: Antiaggressive effects: aggression of isolated, bulbectomized rats; assay type: in vivo; settings: i.p.
Outline: (§1)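 Two paradigms: inhibition of aggressive behaviour in previously isolated mice, and in isolated, bulbectomized rats. Significance set at p<0.05.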

[4] = tested on: apomorphine-induced stereotypy; assay: Antagonism of apomorphine-induced stereotypy in rats; assay type: in vivo; settings: Rattus norvegicus, 0.5 h, apomorphine 1.5 mg.kg^-1 i.p., 30 minutes
Outline: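 Rats received apomorphine or amphetamine i.p. at 1.5 mg.kg^-1, and stereotyped movements were scored on the Quinton–Halliwell scale. Values are % inhibition (−) or potentiation (+) of stereotypy score, measured at 30 minutes for apomorphine and 3 hours for amphetamine.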

[5] = tested on: reserpine-induced hypothermia; assay: Antagonism of reserpine-induced hypothermia; assay type: in vivo, Swiss CD male mice; settings: mice, reserpine 2.5 mg.kg^-1 i.p.
Outline: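 Male Swiss CD mice (27-28 g, n=10/group) given reserpine 2.5 mg.kg^-1 i.p., then test compound i.p. 3 h later. Rectal temperature taken 1 and 2 h after compound dosing and compared with each animal's temperature just before compound administration.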

[6] = tested on: isolation-induced aggression; assay: Antiaggressive effects: isolation-induced aggression in mice; assay type: in vivo; settings: isolated mice, i.p.
Outline: as §1

[7] = tested on: apomorphine-induced hypothermia; assay: Antagonism with respect to apomorphine-induced hypothermia in mice; assay type: in vivo; settings: Mus musculus, 2 h, apomorphine 1 mg.kg^-1 s.c., after 2 hours
Protocol: Testing for an antagonism with respect to apomorphine-induced hypothermia in mice was performed according to the method described by CHERMAT R. and PONCELET M. in J. Pharmac. (1983), 14, No. 1, p. 93-97. The dose of apomorphine administered subcutaneously was 1 mg.kg^-1. Tables VII and VIII show the percentage antagonism of the hypothermia observed after 2 hours.

[8] = tested on: interoceptive stimulus of apomorphine; assay: Drug discrimination in rats (generalization with apomorphine); assay type: in vivo; settings: 30 minutes before test
Protocol: Rats were trained to discriminate between the effect of the interoceptive stimulus of apomorphine (0.2 mg.kg^-1 i.p.) and that of physiological saline, according to a principle described by Colpaert F. in "Drug discrimination application in C.N.S. Pharmacology" Ed. Elsevier Biomedical 1982, Amsterdam. […]
Under the experimental conditions employed, the behavior shown by the animals coincides with that noted in the case of administration of apomorphine.

[9] = tested on: apomorphine-induced rearing-up; assay: Antagonism of apomorphine-induced rearing-up behavior in mice; assay type: in vivo; settings: Mus musculus, apomorphine 0.75 mg.kg^-1 s.c.
Outline: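 Mice given compound i.p. (doses from 2.5 mg.kg^-1) or orally at 20 mg.kg^-1, then challenged with apomorphine 0.75 mg.kg^-1 s.c.; antagonism of rearing-up behavior scored per Protais et al., significance at p<0.05.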

Q: Which results are given for `NC1CCc2cc3c(cc2C1)OCC3` (racemic) [Example 2, di-7-Amino-2,3,5,6,7,8-hexahydronaphtho[2,3-b]furan hydrochloride]?
A: ED50 [1]: 0.146 mg/kg; % ISS (inhibition (-) or potentiation (+) of the stereotypy score) ([2]; i.p. dose 5 mg.kg^-1, amphetamine 1.5 mg.kg^-1 i.p.): +32%; % ISS (inhibition (-) or potentiation (+) of the stereotypy score) ([2]; i.p. dose 10 mg.kg^-1, amphetamine 1.5 mg.kg^-1 i.p.): +39%; % of rats rendered non-aggressive ([3]; 1.25 mg.kg^-1): 17%; % of rats rendered non-aggressive ([3]; 2.5 mg.kg^-1): 50%; % of rats rendered non-aggressive ([3]; 5 mg.kg^-1): 73%; % of rats rendered non-aggressive ([3]; 10 mg.kg^-1): 17%; change in vivo at 5 mg/kg ([4]; ip, read-out: % ISS (inhibition (-) or potentiation (+) of the stereotypy score), rats, i.p. dose 5 mg.kg^-1): -16%; change in vivo at 10 mg/kg ([4]; ip, read-out: % ISS (inhibition (-) or potentiation (+) of the stereotypy score), rats, i.p. dose 10 mg.kg^-1): -62%; change in vivo at 20 mg/kg ([4]; ip, read-out: % ISS (inhibition (-) or potentiation (+) of the stereotypy score), rats, i.p. dose 20 mg.kg^-1): -48%; change in vivo at 10 mg/kg ([4]; po, read-out: % ISS (inhibition (-) or potentiation (+) of the stereotypy score), rats, p.o. dose 10 mg.kg^-1): -55%; change in vivo at 20 mg/kg ([4]; po, read-out: % ISS (inhibition (-) or potentiation (+) of the stereotypy score), rats, p.o. dose 20 mg.kg^-1): -55%; % inhibition of hypothermia ([5]; 2.5 mg.kg^-1 i.p.): -62%; % inhibition of hypothermia ([5]; 5 mg.kg^-1 i.p.): -27%; % inhibition of hypothermia ([5]; 10 mg.kg^-1 i.p.): -32%; % inhibition of hypothermia ([5]; 20 mg.kg^-1 i.p.): -47%; % of pairs of mice showing no sign of fighting ([6]; 2.5 mg.kg^-1): 40%; % of pairs of mice showing no sign of fighting ([6]; 5 mg.kg^-1): 70%; % of pairs of mice showing no sign of fighting ([6]; 10 mg.kg^-1): 100%; % of pairs of mice showing no sign of fighting ([6]; 20 mg.kg^-1): 100%; change in vivo at 1 mg/kg ([7]; ip, read-out: % antagonism of hypothermia, mice, i.p. dose 1): -11%; change in vivo at 5 mg/kg ([7]; ip, read-out: % antagonism of hypothermia, mice, i.p. dose 5): -57%; change in vivo at 10 mg/kg ([7]; ip, read-out: % antagonism of hypothermia, mice, i.p. dose 10): -54%; change in vivo at 20 mg/kg ([7]; ip, read-out: % antagonism of hypothermia, mice, i.p. dose 20): -80%; change in vivo at 2.5 mg/kg ([7]; po, read-out: % antagonism of hypothermia, mice, p.o. dose 2.5): -35%; change in vivo at 5 mg/kg ([7]; po, read-out: % antagonism of hypothermia, mice, p.o. dose 5): -59%; change in vivo at 10 mg/kg ([7]; po, read-out: % antagonism of hypothermia, mice, p.o. dose 10): -70%; change in vivo at 20 mg/kg ([7]; po, read-out: % antagonism of hypothermia, mice, p.o. dose 20): -86%; % of animals which generalize ([8]; 1.0 mg.kg^-1 i.p.): 20%; Number of animals showing the effect of generalization with apomorphine ([8]; 1.0 mg.kg^-1 i.p.): 2/10; % of animals which generalize ([8]; 2.5 mg.kg^-1 i.p.): 77%; Number of animals showing the effect of generalization with apomorphine ([8]; 2.5 mg.kg^-1 i.p.): 7/9; % of animals which generalize ([8]; 5.0 mg.kg^-1 i.p.): 50%; Number of animals showing the effect of generalization with apomorphine ([8]; 5.0 mg.kg^-1 i.p.): 2/4; change in vivo at 5 mg/kg ([9]; ip, read-out: % inhibition of rearing-up, mice, i.p. dose 5 mg.kg^-1): -56%; change in vivo at 10 mg/kg ([9]; ip, read-out: % inhibition of rearing-up, mice, i.p. dose 10 mg.kg^-1): -58%; change in vivo at 20 mg/kg ([9]; ip, read-out: % inhibition of rearing-up, mice, i.p. dose 20 mg.kg^-1): -91%; change in vivo at 40 mg/kg ([9]; ip, read-out: % inhibition of rearing-up, mice, i.p. dose 40 mg.kg^-1): -100%; change in vivo at 10 mg/kg ([9]; po, read-out: % inhibition of rearing-up, mice, p.o. dose 10 mg.kg^-1): -77%; change in vivo at 20 mg/kg ([9]; po, read-out: % inhibition of rearing-up, mice, p.o. dose 20 mg.kg^-1): -100%
